Results from patent US20240287047A1, “PESTICIDALLY ACTIVE DIAZINE-AMIDE COMPOUNDS” (SYNGENTA CROP PROTECTION AG, priority 2021, published 2024).

Key:
Format in all cases: in vivo
Plutella xylostella [1] = assay: Example B4: Plutella xylostella (diamond back moth), artificial diet, eggs; conditions: Plutella xylostella, 192 h; application rate of 200 ppm; 8 days after infestation; read-out: control in at least one of the two categories (mortality or growth inhibition)
Procedure: 24-well microtiter plates with artificial diet were treated with aqueous test solutions prepared from 10′000 ppm DMSO stock solutions by pipetting. After drying, Plutella eggs were pipetted through a plastic stencil onto a gel blotting paper and the plate was closed with it. The samples were assessed for mortality and growth inhibition in comparison to untreated samples 8 days after infestation.

Spodoptera littoralis [2] = assay: Example B6: Spodoptera littoralis, uptake by lettuce roots from agar; conditions: 144 h, test rate of 12.5 ppm, 6 days after infestation, read-out: effect in at least one of the three categories (mortality, anti-feeding, or growth inhibition)
Excerpt: Test compounds were applied by pipette from 10,000 ppm DMSO stock solutions into 24-well plates and mixed with agar. Lettuce seeds were placed onto the agar and the multi well plate was closed by another plate which contained also agar. After 7 days the compound was absorbed by the roots and the lettuce grew into the lid plate. The lettuce leaves were then cut off into the lid plate. Spodoptera eggs were pipetted through a plastic stencil onto a humid gel blotting paper and the lid plate was closed with it. The samples were assessed for mortality, anti-feedant effect and growth inhibition in comparison to untreated samples 6 days after infestation.

Chilo suppressalis = assay: Example B1: Chilo suppressalis (striped rice stemborer), artificial diet, L2 larvae; conditions: 144 h, application rate of 200 ppm, 6 days after infestation, read-out: control in at least one of the three categories (mortality, anti-feedant effect, or growth inhibition)
Plutella xylostella [3] = assay: Example B8: Plutella xylostella (diamondback moth), 96-well artificial diet; conditions: 216 h, application rate of 500 ppm, 9 days after infestation
Procedure: 96-well microtiter plates containing artificial diet were treated with aqueous test solutions, prepared from 10,000 ppm DMSO stock solutions, by a liquid handling robot. After drying, eggs (˜30 per well) were infested onto a netted lid which was suspended above the diet. The eggs hatch and L1 larvae move down to the diet. The samples were assessed for mortality 9 days after infestation.

Diabrotica balteata = assay: Example B2: Diabrotica balteata (corn root worm), maize sprouts, L2 larvae; conditions: Diabrotica balteata, 96 h; application rate of 200 ppm; 4 days after infestation; read-out: control in at least one of the two categories (mortality or growth inhibition)
Procedure: Maize sprouts placed onto an agar layer in 24-well microtiter plates were treated with aqueous test solutions prepared from 10,000 ppm DMSO stock solutions by spraying. After drying, the plates were infested with L2 larvae (6 to 10 per well). The samples were assessed for mortality and growth inhibition in comparison to untreated samples 4 days after infestation.

Spodoptera littoralis [4] = assay: Example B5: Spodoptera littoralis (Egyptian cotton leaf worm), cotton leaf discs, L1 larvae; conditions: foliar, 72 h, application rate of 200 ppm, 3 days after infestation, read-out: control in at least one of the three categories (mortality, anti-feedant effect, or growth inhibition)
Method in brief: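 Cotton leaf discs on agar sprayed with aqueous dilutions of 10,000 ppm DMSO stocks, dried, then infested with five L1 larvae. Mortality, anti-feeding and growth inhibition scored against untreated discs 3 days after infestation. Control recorded when any one category exceeds the untreated sample.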

Myzus persicae [5] = assay: Example B7: Myzus persicae (green peach aphid), 96-well sucrose solution; conditions: 120 h, application rate of 50 ppm, 5 days after infestation
Procedure: Test compounds prepared from 10′000 ppm DMSO stock solutions were applied by a liquid handling robot into 96-well microtiter plates and mixed with a sucrose solution. Parafilm was stretched over the 96-well microtiter plate and a plastic stencil with 96 holes was placed onto the plate. Aphids were sieved into the wells directly onto the Parafilm. The infested plates were closed with a gel blotting card and a second plastic stencil and then turned upside down. The samples were assessed for mortality 5 days after infestation.

Myzus persicae [6] = assay: Example B3: Myzus persicae (green peach aphid) intrinsic activity; conditions: 120 h, test rate of 12 ppm, 5 days after infestation
Procedure: Test compounds prepared from 10′000 ppm DMSO stock solutions were applied by pipette into 24-well microtiter plates and mixed with sucrose solution. The plates were closed with a stretched Parafilm. A plastic stencil with 24 holes was placed onto the plate and infested pea seedlings were placed directly on the Parafilm. The infested plate was closed with a gel blotting paper and another plastic stencil and then turned upside down. The samples were assessed for mortality 5 days after infestation.

C[C@H](NC(=O)c1cc(C(F)(F)F)cc(C(F)(F)F)c1)c1nccnc1-c1cnccn1 [Compound E3, N-[(1S)-1-(3-pyrazin-2-ylpyrazin-2-yl)ethyl]-3,5-bis(trifluoromethyl)benzamide]
≥ 80%: percent control (mortality or growth inhibition) at 200 ppm (Plutella xylostella [1]) | percent effect (mortality, anti-feeding or growth inhibition) at 12.5 ppm (Spodoptera littoralis [2]) | percent control (mortality, anti-feedant effect or growth inhibition) at 200 ppm (Chilo suppressalis) | mortality at 500 ppm (Plutella xylostella [3]) | percent control (mortality or growth inhibition) at 200 ppm (Diabrotica balteata) | percent control (mortality, anti-feedant effect or growth inhibition) at 200 ppm (Spodoptera littoralis [4]) | mortality at 50 ppm (Myzus persicae [5]) | mortality at 12 ppm (Myzus persicae [6])
